Measured values taken from patent US10314825B2, “Agent for treatment of PBC” (KOWA COMPANY, LTD., priority 2017, dated 2019).

How the values were obtained:
Type in all cases: in vivo, human
[1] = system: patients with dyslipidemia showing a high level of triglyceride (TG); assay: Changes in ALP levels after 12 weeks, clinical trial data (Example 1); conditions: for ALP level, Rate of change (LSmean): 12 weeks vs baseline
Protocol: Compound A was administered at a dose of 0.05 to 0.4 mg per day to Compound A group. […] Note that comparisons between the groups were investigated by using covariance analysis with baseline levels used as covariates.

[2] = system: patients with dyslipidemia showing a high level of triglyceride (TG); assay: Changes in total bilirubin levels after 12 weeks, clinical trial data (Example 1); conditions: for total bilirubin level, Rate of change (LSmean): 12 weeks vs baseline
Protocol: By using data (1965 cases in total) obtained in a clinical trial (8 tests with an administration period of 12 weeks or more) of Compound A, which had been performed for patients with dyslipidemia showing a high level of triglyceride (TG), the effects of Compound A for ALP and total bilirubin were investigated. Compound A was administered at a dose of 0.05 to 0.4 mg per day to Compound A group. […] Each compound was administered to Compound A group and a control group for 12 weeks, and changes in the levels of ALP before and after the administration are shown in Table 1 and FIG. 1, and changes in the levels of total bilirubin before and after the administration are shown in Table 2 and FIG. 2. Note that comparisons between the groups were investigated by using covariance analysis with baseline levels used as covariates.

[3] = system: patients with dyslipidemia showing a high level of TG being treated with ursodeoxycholic acid; assay: Changes in ALP levels after 12 weeks in patients being treated with ursodeoxycholic acid (Example 2); conditions: 0.05 to 0.4 mg per day
Protocol: (§1) Data of patients being treated with ursodeoxycholic acid (15 cases in total) were extracted from the data obtained in a clinical trial (8 tests with an administration period of 12 weeks or more) of Compound A, which had been performed for patients with dyslipidemia showing a high level of TG, the effects of Compound A for the ALP and the total bilirubin were investigated. Compound A was administered at a dose of 0.05 to 0.4 mg per day to Compound A group. Further, placebo was administered to a control group. Each compound was administered to Compound A group and a control group for 12 weeks, and changes in the levels of ALP before and after the administration are shown in Table 3 and FIG. 3, and changes in the levels of total bilirubin before and after the administration are shown in Table 4 and FIG. 4. Note that comparisons between the groups were investigated by using covariance analysis with baseline levels used as covariates.

[4] = system: patients with dyslipidemia showing a high level of TG being treated with ursodeoxycholic acid; assay: Changes in total bilirubin levels after 12 weeks in patients being treated with ursodeoxycholic acid (Example 2); conditions: 0.05 to 0.4 mg per day
Protocol: as §1

[5] = 100 mg/day micronized fenofibrate capsule formulation
[6] = 106.6 mg/day solid dispersion fenofibrate tablet
[7] = 0.05 to 0.4 mg per day, 12 weeks

## CC(C)OC(=O)C(C)(C)Oc1ccc(C(=O)c2ccc(Cl)cc2)cc1 [fenofibrate]
[1]; [5]
  ALP level, Rate of change (LSmean): −11.1
[1]; 100 mg/day micronized fenofibrate capsule formulation, 12 weeks, baseline 226.3
  ALP level, 12 Weeks: 198.7 IU/L
[1]; [6]
  ALP level, Rate of change (LSmean): −14.7
[1]; 106.6 mg/day solid dispersion fenofibrate tablet, 12 weeks, baseline 235.3
  ALP level, 12 Weeks: 198.8 IU/L
[1]; 200 mg/day micronized fenofibrate capsule formulation, 12 weeks, baseline 222.5
  ALP level, 12 Weeks: 182.5 IU/L
[2]; [5]
  total bilirubin level, Rate of change (LSmean): −5.2
[2]; 100 mg/day micronized fenofibrate capsule formulation, 12 weeks, baseline 0.8
  total bilirubin level, 12 Weeks: 0.7 mg/dL
[2]; [6]
  total bilirubin level, Rate of change (LSmean): −4.2
[2]; 106.6 mg/day solid dispersion fenofibrate tablet, 12 weeks, baseline 0.8
  total bilirubin level, 12 Weeks: 0.7 mg/dL
[2]; 200 mg/day micronized fenofibrate capsule formulation
  total bilirubin level, Rate of change (LSmean): −9.3
[2]; 200 mg/day micronized fenofibrate capsule formulation, 12 weeks, baseline 0.9
  total bilirubin level, 12 Weeks: 0.7 mg/dL

## CC[C@@H](Oc1cccc(CN(CCCOc2ccc(OC)cc2)c2nc3ccccc3o2)c1)C(=O)O [Compound A, (R)-2-[3-[[N-(benzoxazol-2-yl)-N-3-(4-methoxyphenoxy)propyl]aminomethyl]phenoxy] butyric acid]
[3]
  effect on level of ALP: decreases the levels of ALP and total bilirubin
[1]; [7]
  effect on level of ALP as compared with placebo: decreases dose-dependently
[1]; dose of 0.1 mg or more, 12 weeks
  effect on level of ALP compared with fenofibrate at the maximum clinical dose (200 mg per day): decreases the level of ALP more strongly than the fenofibrate
[4]
  effect on level of total bilirubin: decreases the levels of ALP and total bilirubin
[2]; [7]
  effect on level of total bilirubin as compared with placebo: decreases dose-dependently
